Tests used:
JNK phosphorylation = test: JNK Activation Assay (western blot), Panc-1; assay type: cell-based, human; settings: at 10 μM, Panc-1 pancreatic cancer cell line; starred symbols = activation
Summary of the method: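 KRas G12C Panc-1 cells treated 6 h at 37 °C with compound at 10 μM (0.3% DMSO), or serial dilutions for IC50. In Method 1 cells were serum-starved overnight (0.5% FBS) then stimulated with 1.5 ng/ml EGF for 15 min; Method 2 used 10% FBS without stimulation. Phospho-JNK (Thr183/Tyr185) measured by western blot.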

cdc42 = biological target: T1, cdc42 (Homo sapiens, UniProt P60953); test: Cdc42 GTP Binding Domain Inhibition Assay; settings: read-out: Cdc42: % inh.
T1 construct: made in house
T1 sequence (P60953 whole entry, the tested form may be a part): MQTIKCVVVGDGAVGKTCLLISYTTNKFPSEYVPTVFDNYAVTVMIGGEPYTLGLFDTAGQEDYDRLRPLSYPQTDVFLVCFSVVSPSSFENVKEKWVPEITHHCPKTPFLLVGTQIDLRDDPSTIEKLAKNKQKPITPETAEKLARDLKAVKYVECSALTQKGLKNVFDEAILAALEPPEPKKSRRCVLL
Experimental: Protocol for Cdc42 and Rheb GTP Binding Domain Inhibition Assay
The following method was developed as specific assay for cdc42 and Rheb proteins.
• 25 mM Tris-HCl, pH 7.4 • 27 mM KCl • 137 mM NaCl • 1 mM MgCl2 • 1 mM DTT Buffer-II: • 50 mM Tris-HCl, pH 7.0 • 1 mM MgCl2 • 1 mM DTT
The small GTPases proteins cdc42 and Rheb were expressed as His-tagged proteins. For the assay, the cdc42 and Rheb purified small GTPases proteins were diluted in Buffer-I or Buffer-II to a final concentration of 10-30 μg/mL. 200 μL of each diluted protein was added to a nickel-coated 96-well plate and incubated overnight at […]. Then the protein solution was discarded and 200 μL of Buffer-I or Buffer-II was added to each well in the presence of 1% DMSO. Compounds to be tested were added to the protein-coated wells at final concentration of 20 μM, and incubated for 3 hours at room temperature with and without 10-30 μg/mL of Sos added to the final hour of the incubation. When performing IC50 measurements a serial dilution of all tested concentrations was added. Then Cy3-GTP or Cy5-GTP was added to each well to a final concentration of 100 nM. The labeled GTP was incubated for 45 minutes at room temperature. Following GTP incubation, wells were washed 3× in Buffer-I or Buffer-II and 200 μL of Buffer-I or Buffer-II was added to each well. Following washes, the amount of bound labeled-GTP was measured using a SpectraMax M3 (Molecular Devices).

MAPK p38 phosphorylation = test: MAPK p38 Activation Assay (western blot), Panc-1; assay type: cell-based, human; settings: at 10 μM, Panc-1 pancreatic cancer cell line; starred symbols = activation
Summary of the method: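 Panc-1 cells (KRas G12D) were treated with compound for 6 h at 37 °C, at 10 μM or as serial dilutions for IC50, with 0.3% DMSO. Method 1 used overnight serum-starved cells (0.5% FBS) stimulated with 1.5 ng/ml EGF for 15 min; Method 2 used unstimulated cells in 10% FBS. Phospho-p38 (Thr180/Tyr182) was detected by western blot.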

Row | SMILES | % inh of JNK in Panc-1 (JNK phosphorylation) | inhibition at 20 µM (cdc42) [%] | % inh of MAPK p38 in Panc-1 (MAPK p38 phosphorylation)
1 | COc1cccc(-c2cn3nc(-c4nccn4C)nc(N[C@@H]4CC[C@@H](OC)C4)c3c2-c2ccccc2)c1F (racemic) [Compound 43, rac 6-(2-Fluoro-3-methoxyphenyl)-N-((1R,3R)-3-methoxycyclopentyl)-2-(1-methyl-1H-imidazol-2-yl)-5-phenylpyrrolo[2,1-f][1,2,4]triazin-4-amine] | H* (H* ≥ 100% activation) | 1 to 25 | H* (H* ≥ 100% activation)
2 | COc1cccc(-c2cn3nc(-c4nccn4C)nc(N[C@@H]4CC[C@@H](OC)C4)c3c2-c2ccccn2)c1F (racemic) [Compound 46, rac 6-(2-Fluoro-3-methoxyphenyl)-N-((1R,3R)-3-methoxycyclopentyl)-2-(1-methyl-1H-imidazol-2-yl)-5-(pyridin-2-yl)pyrrolo[2,1-f][1,2,4]triazin-4-amine] | H* (H* ≥ 100% activation) | 50 to 75 | H (H = 100% inhibition)
3 | COc1cccc(-c2cn3nc(-c4nccn4C)nc(N[C@H]4C[C@H](OC)C4)c3c2-c2ccccc2)c1Cl [Compound 32, 6-(2-Chloro-3-methoxyphenyl)-N-((1r,3r)-3-methoxycyclobutyl)-2-(1-methyl-1H-imidazol-2-yl)-5-phenylpyrrolo[2,1-f][1,2,4]triazin-4-amine] | H (H = 100% inhibition) | 1 to 25 | H (H = 100% inhibition)
4 | COc1cccc(-c2cn3nc(-c4nccn4C)nc(N[C@H]4C[C@H](OC)C4)c3c2-c2ccccc2)c1F [Compound 42, 6-(2-Fluoro-3-methoxyphenyl)-N-((1r,3r)-3-methoxycyclobutyl)-2-(1-methyl-1H-imidazol-2-yl)-5-phenylpyrrolo[2,1-f][1,2,4]triazin-4-amine] | H* (H* ≥ 100% activation) | 1 to 25 | H* (H* ≥ 100% activation)
5 | COCCO[C@H]1C[C@H](Nc2nc(-c3nccn3C)nn3cc(-c4cccc(OC)c4F)c(-c4ccccc4)c23)C1 [Compound 44, 6-(2-Fluoro-3-methoxyphenyl)-N-((1r,3r)-3-(2-methoxyethoxy)cyclobutyl)-2-(1-methyl-1H-imidazol-2-yl)-5-phenylpyrrolo[2,1-f][1,2,4]triazin-4-amine] | H* (H* ≥ 100% activation) | 26 to 49 | H* (H* ≥ 100% activation)
6 | COc1cccc(-c2cn3nc(-c4nccn4C)nc(N[C@H]4C[C@H](OC)C4)c3c2-c2ccccn2)c1F [Compound 45, 6-(2-Fluoro-3-methoxyphenyl)-N-((1r,3r)-3-methoxycyclobutyl)-2-(1-methyl-1H-imidazol-2-yl)-5-(pyridin-2-yl)pyrrolo[2,1-f][1,2,4]triazin-4-amine] | H* (H* ≥ 100% activation) | 26 to 49 | H* (H* ≥ 100% activation)
7 | COc1cccc(-c2cn3nc(-c4nccn4C)nc(N[C@H]4C[C@H](OC)C4)c3c2-c2ccn(C)n2)c1F [Compound 47, 6-(2-Fluoro-3-methoxyphenyl)-N-((1r,3r)-3-methoxycyclobutyl)-2-(1-methyl-1H-imidazol-2-yl)-5-(1-methyl-1H-pyrazol-3-yl)pyrrolo[2,1-f][1,2,4]triazin-4-amine] | H* (H* ≥ 100% activation) | 1 to 25 | F (F = 31-74% inhibition)
8 | COc1cc(Nc2nc(-c3nccn3C)nn3cc(-c4ccn(C(C)C)n4)c(C)c23)n[nH]1 [Compound 51, 6-(1-Isopropyl-1H-pyrazol-3-yl)-N-(5-methoxy-1H-pyrazol-3-yl)-5-methyl-2-(1-methyl-1H-imidazol-2-yl)pyrrolo[2,1-f][1,2,4]triazin-4-amine] | H* (H* ≥ 100% activation) | 50 to 75 | H* (H* ≥ 100% activation)
9 | Cc1c(-c2ccn(C(C)C)n2)cn2nc(-c3nccn3C)nc(Nc3ccncc3)c12 [Compound 52, 6-(1-Isopropyl-1H-pyrazol-3-yl)-5-methyl-2-(1-methyl-1H-imidazol-2-yl)-N-(pyridin-4-yl)pyrrolo[2,1-f][1,2,4]triazin-4-amine] | 0 (0 = 0% inhibition) | 1 to 25 | F* (F* = 31-74% activation)
10 | COc1ccnc(Nc2nc(-c3nccn3C)nn3cc(-c4ccn(C(C)C)n4)c(C)c23)n1 [Compound 53, 6-(1-Isopropyl-1H-pyrazol-3-yl)-N-(4-methoxypyrimidin-2-yl)-5-methyl-2-(1-methyl-1H-imidazol-2-yl)pyrrolo[2,1-f][1,2,4]triazin-4-amine] | H* (H* ≥ 100% activation) | 50 to 75 | H* (H* ≥ 100% activation)
11 | Cc1c(-c2ccn(C(C)C)n2)cn2nc(-c3nccn3C)nc(Nc3ncccn3)c12 [Compound 54, 6-(1-Isopropyl-1H-pyrazol-3-yl)-5-methyl-2-(1-methyl-1H-imidazol-2-yl)-N-(pyrimidin-2-yl)pyrrolo[2,1-f][1,2,4]triazin-4-amine] | H* (H* ≥ 100% activation) | 50 to 75 | H* (H* ≥ 100% activation)
12 | Cc1c(-c2ccn(C(C)C)n2)cn2nc(-c3nccn3C)nc(Nc3ccncn3)c12 [Compound 55, 6-(1-Isopropyl-1H-pyrazol-3-yl)-5-methyl-2-(1-methyl-1H-imidazol-2-yl)-N-(pyrimidin-4-yl)pyrrolo[2,1-f][1,2,4]triazin-4-amine] | H* (H* ≥ 100% activation) | 50 to 75 | H* (H* ≥ 100% activation)
13 | COc1cnc(Nc2nc(-c3nccn3C)nn3cc(-c4ccn(C(C)C)n4)c(C)c23)nc1 [Compound 56, 6-(1-Isopropyl-1H-pyrazol-3-yl)-N-(5-methoxypyrimidin-2-yl)-5-methyl-2-(1-methyl-1H-imidazol-2-yl)pyrrolo[2,1-f][1,2,4]triazin-4-amine] | H* (H* ≥ 100% activation) | 26 to 49 | H* (H* ≥ 100% activation)
14 | Cc1c(-c2ccn(C(C)C)n2)cn2nc(-c3nccn3C)nc(Nc3ccccn3)c12 [Compound 57, 6-(1-Isopropyl-1H-pyrazol-3-yl)-5-methyl-2-(1-methyl-1H-imidazol-2-yl)-N-(pyridin-2-yl)pyrrolo[2,1-f][1,2,4]triazin-4-amine] | H* (H* ≥ 100% activation) | 76 to 100 | E* (E* = 1-30% activation)
15 | COc1ccnc(Nc2nc(-c3nccn3C)nn3cc(-c4ccn(C(C)C)n4)c(C)c23)c1 [Compound 58, 6-(1-Isopropyl-1H-pyrazol-3-yl)-N-(4-methoxypyridin-2-yl)-5-methyl-2-(1-methyl-1H-imidazol-2-yl)pyrrolo[2,1-f][1,2,4]triazin-4-amine] | H* (H* ≥ 100% activation) | 76 to 100 | G* (G* = 75-99% activation)
16 | Cc1c(-c2ccn(C(C)C)n2)cn2nc(-c3nccn3C)nc(Nc3nnco3)c12 [Compound 59, N-(6-(1-Isopropyl-1H-pyrazol-3-yl)-5-methyl-2-(1-methyl-1H-imidazol-2-yl)pyrrolo[2,1-f][1,2,4]triazin-4-yl)-1,3,4-oxadiazol-2-amine] | H* (H* ≥ 100% activation) | 50 to 75 | H* (H* ≥ 100% activation)
17 | Cc1c(-c2ccn(C(C)C)n2)cn2nc(-c3nccn3C)nc(Nc3ncco3)c12 [Compound 60, N-(6-(1-Isopropyl-1H-pyrazol-3-yl)-5-methyl-2-(1-methyl-1H-imidazol-2-yl)pyrrolo[2,1-f][1,2,4]triazin-4-yl)oxazol-2-amine] | H* (H* ≥ 100% activation) | 1 to 25 | H* (H* ≥ 100% activation)
18 | COc1ccc(Nc2nc(-c3nccn3C)nn3cc(-c4ccn(C(C)C)n4)c(C)c23)nn1 [Compound 74, 6-(1-Isopropyl-1H-pyrazol-3-yl)-N-(6-methoxypyridazin-3-yl)-5-methyl-2-(1-methyl-1H-imidazol-2-yl)pyrrolo[2,1-f][1,2,4]triazin-4-amine] | – | 0 | –

— patent US12459951B2, “Compounds that interact with RAS superfamily proteins for treatment of cancers, inflammatory diseases, rasopathies, and fibrotic disease” (SHY Therapeutics, LLC, priority 2022, dated 2025)
